# Assay results published in the supplement of paper PMC10307832.
# Tests used:
# Test in all cases: relative viability (nuclei count vs DMSO), 5 days (fraction); higher = more cells survive
# EHT 1864 + Olaparib = compound: C1COCCN1CC2=CC(=O)C(=CO2)OCCCCCSC3=C4C=CC(=CC4=NC=C3)C(F)(F)F [EHT 1864] + O=C(c1cc(Cc2n[nH]c(=O)c3ccccc23)ccc1F)N1CCN(C(=O)C2CC2)CC1 [Olaparib] (partner 8 µM)
# Outline: (§1)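 Lung cancer cell lines in 1536-well plates got either a single drug or a fixed anchor-drug dose together with five library-drug doses (not always all listed) in √10 steps, by pin tool, on the day after seeding. Nuclei were counted after 5 days, and relative viability is the treated-to-vehicle ratio of nuclei counts. Values are medians of duplicate plates.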
# EHT 1864 + Phenformin = compound: C1COCCN1CC2=CC(=O)C(=CO2)OCCCCCSC3=C4C=CC(=CC4=NC=C3)C(F)(F)F [EHT 1864] + N=C(N)NC(=N)NCCc1ccccc1 [Phenformin] (partner 250 µM)
# Outline: as §1
# EHT 1864 + Lapatinib = compound: C1COCCN1CC2=CC(=O)C(=CO2)OCCCCCSC3=C4C=CC(=CC4=NC=C3)C(F)(F)F [EHT 1864] + CS(=O)(=O)CCNCc1ccc(-c2ccc3ncnc(Nc4ccc(OCc5cccc(F)c5)c(Cl)c4)c3c2)o1 [Lapatinib] (partner 2 µM)
# Outline: as §1
# EHT 1864 + Trametinib = compound: C1COCCN1CC2=CC(=O)C(=CO2)OCCCCCSC3=C4C=CC(=CC4=NC=C3)C(F)(F)F [EHT 1864] + CC(=O)Nc1cccc(-n2c(=O)n(C3CC3)c(=O)c3c(Nc4ccc(I)cc4F)n(C)c(=O)c(C)c32)c1 [Trametinib] (partner 0.02 µM)
# Outline: as §1
Cell Line,relative viability (EHT 1864 + Olaparib; first compound 0.04 µM),relative viability (EHT 1864 + Olaparib; first compound 0.4 µM),relative viability (EHT 1864 + Olaparib; first compound 1.265 µM),relative viability (EHT 1864 + Olaparib; first compound 4 µM),relative viability (EHT 1864 + Phenformin; first compound 0.04 µM),relative viability (EHT 1864 + Phenformin; first compound 0.4 µM),relative viability (EHT 1864 + Phenformin; first compound 1.265 µM),relative viability (EHT 1864 + Phenformin; first compound 4 µM),relative viability (EHT 1864 + Lapatinib; first compound 0.04 µM),relative viability (EHT 1864 + Lapatinib; first compound 0.1265 µM),relative viability (EHT 1864 + Lapatinib; first compound 0.4 µM),relative viability (EHT 1864 + Lapatinib; first compound 1.265 µM),relative viability (EHT 1864 + Lapatinib; first compound 4 µM),relative viability (EHT 1864 + Trametinib; first compound 0.04 µM),relative viability (EHT 1864 + Trametinib; first compound 0.4 µM),relative viability (EHT 1864 + Trametinib; first compound 1.265 µM),relative viability (EHT 1864 + Trametinib; first compound 4 µM),relative viability (EHT 1864 + Olaparib; first compound 0.1265 µM),relative viability (EHT 1864 + Phenformin; first compound 0.1265 µM),relative viability (EHT 1864 + Trametinib; first compound 0.1265 µM)
NCI-H1993,1.17,0.971,0.966,1.05,0.537,0.488,0.534,0.508,0.918,0.812,0.806,0.864,0.858,0.579,0.5,0.485,0.543,,,
NCI-H1437,0.621,0.622,0.523,0.523,0.34,0.298,0.311,0.335,0.793,0.723,0.678,0.636,0.62,0.531,0.56,0.485,0.45,0.587,0.262,0.411
UMC-11,0.379,0.426,0.383,0.356,0.356,,0.324,0.31,0.724,,1.05,0.938,0.987,0.727,0.692,0.74,0.967,0.383,0.275,0.496
201T,0.821,0.856,0.73,0.81,0.471,0.434,0.483,0.445,1.07,1,1.07,1.01,1.01,0.702,0.681,0.693,0.605,0.794,0.423,0.707
SK-MES-1,0.768,0.775,0.737,0.698,0.726,0.605,0.577,0.602,0.469,0.48,0.517,0.439,0.443,0.539,0.518,0.537,0.518,0.765,0.67,0.498
NCI-H1650,0.722,0.776,0.845,0.682,,0.478,0.435,0.39,0.741,0.443,0.812,0.841,0.589,0.521,0.515,0.515,0.568,0.63,,0.568
LOU-NH91,0.917,0.911,0.949,0.885,0.783,0.859,0.738,0.66,0.769,0.746,0.802,0.81,0.797,0.757,0.802,0.761,0.74,0.858,0.635,0.747
HOP-62,0.448,0.435,0.438,0.453,0.665,0.615,0.654,0.718,1.07,,1.01,1.09,1.18,0.4,0.362,0.38,0.415,,,
NCI-H1915,0.287,0.251,0.257,0.257,0.396,0.366,0.382,0.374,1.03,,0.993,0.937,0.902,0.295,0.283,0.28,0.286,,,
NCI-H3122,0.556,0.627,0.596,0.612,0.415,0.362,0.345,0.304,0.976,0.825,1.03,1.08,1,0.219,0.248,0.202,0.219,0.58,0.373,0.288
NCI-H1651,0.165,0.177,0.174,0.191,0.376,0.333,0.345,0.334,0.856,0.788,0.843,0.824,0.912,0.832,0.822,0.817,0.808,0.184,0.358,0.827
NCI-H838,0.743,0.788,0.79,0.807,0.558,0.638,0.697,0.588,0.91,0.799,0.979,0.938,0.932,0.5,0.553,0.514,0.536,0.726,0.513,0.466
NCI-H596,0.773,0.8,0.781,0.777,0.75,0.753,0.571,0.813,1.16,0.968,1.12,1.01,1.09,0.796,0.812,0.738,0.857,0.719,0.523,0.658
SK-LU-1,0.464,0.471,0.451,0.447,0.538,0.52,0.575,0.587,0.91,0.65,0.795,0.878,0.781,0.594,0.477,0.378,0.464,0.515,0.36,0.516
NCI-H650,0.425,0.383,0.39,0.413,0.403,0.48,0.447,0.459,0.797,,1.33,1.07,0.989,0.995,0.898,1.23,1.11,0.386,0.455,0.92
NCI-H1793,0.797,0.971,0.681,0.874,0.301,0.383,,0.392,,0.543,0.667,0.602,0.638,0.37,0.465,0.428,0.434,0.736,,0.356
NCI-H1792,0.466,0.339,0.359,0.416,0.256,,0.304,0.368,0.864,0.777,0.926,0.882,0.928,0.432,0.438,0.345,0.456,,,

Cell Line,relative viability (EHT 1864 + Olaparib; first compound 0.04 µM),relative viability (EHT 1864 + Olaparib; first compound 0.4 µM),relative viability (EHT 1864 + Olaparib; first compound 1.265 µM),relative viability (EHT 1864 + Olaparib; first compound 4 µM),relative viability (EHT 1864 + Phenformin; first compound 0.04 µM),relative viability (EHT 1864 + Phenformin; first compound 0.4 µM),relative viability (EHT 1864 + Phenformin; first compound 1.265 µM),relative viability (EHT 1864 + Phenformin; first compound 4 µM),relative viability (EHT 1864 + Lapatinib; first compound 0.04 µM),relative viability (EHT 1864 + Lapatinib; first compound 0.1265 µM),relative viability (EHT 1864 + Lapatinib; first compound 0.4 µM),relative viability (EHT 1864 + Lapatinib; first compound 1.265 µM),relative viability (EHT 1864 + Lapatinib; first compound 4 µM),relative viability (EHT 1864 + Trametinib; first compound 0.04 µM),relative viability (EHT 1864 + Trametinib; first compound 0.4 µM),relative viability (EHT 1864 + Trametinib; first compound 1.265 µM),relative viability (EHT 1864 + Trametinib; first compound 4 µM),relative viability (EHT 1864 + Olaparib; first compound 0.1265 µM),relative viability (EHT 1864 + Phenformin; first compound 0.1265 µM),relative viability (EHT 1864 + Trametinib; first compound 0.1265 µM)
NCI-H1355,0.718,0.772,0.727,0.706,0.471,0.447,0.446,0.433,1.02,0.819,0.889,1.02,1.04,0.461,0.393,0.452,0.412,0.657,0.425,0.39
SW 1573,0.499,0.451,0.472,0.423,0.436,0.347,0.334,0.382,1.22,0.912,1.12,1.03,1.06,0.622,0.437,0.398,0.444,0.515,0.34,
NCI-H2347,0.624,0.53,0.541,0.402,0.585,0.478,,0.46,0.961,0.638,0.814,0.793,1.12,0.222,0.251,0.276,0.463,0.452,0.432,0.281
LCLC-97TM1,0.347,0.328,0.326,0.444,0.424,0.444,0.415,0.414,1.03,,0.527,1.22,1.12,0.2,0.193,0.183,0.236,0.346,0.364,0.178
EMC-BAC-2,0.616,0.436,0.464,0.458,0.549,0.558,0.502,0.486,0.901,0.765,0.765,0.845,0.882,0.759,0.889,0.924,0.99,0.467,0.48,0.721
NCI-H1975,0.812,0.781,0.791,0.719,0.406,0.407,,0.396,0.868,0.9,0.802,0.837,0.856,0.375,0.296,0.225,0.327,0.828,0.42,0.329
BEN,1.06,0.836,0.914,1,0.251,0.282,0.263,0.247,0.811,0.638,0.671,0.556,0.666,0.819,1.09,0.928,1.1,0.982,0.275,0.949
NCI-H23,0.295,0.284,0.296,0.32,0.778,0.784,0.604,0.775,0.927,,1.05,0.938,0.928,0.347,0.31,0.396,0.419,0.271,0.477,0.413
NCI-H520,0.271,0.354,0.419,0.351,0.517,0.785,0.669,0.711,0.833,0.743,0.834,0.913,0.694,0.692,0.732,0.659,0.67,0.318,0.422,0.628
CAL-12T,0.702,0.721,0.706,0.611,0.582,0.662,0.583,0.596,0.63,0.562,0.677,0.675,0.799,0.35,0.333,0.399,0.39,0.642,0.574,0.287
EPLC-272H,0.741,0.788,0.642,0.611,0.33,0.375,0.36,0.248,1.06,0.624,1.12,0.88,0.801,0.283,0.29,0.267,0.289,0.672,0.34,0.288
NCI-H2405,0.895,0.912,0.788,0.853,0.445,0.44,0.289,0.37,1.1,1.02,1.11,,1.13,0.688,0.744,0.644,0.612,0.815,0.42,0.587
HCC-15,0.717,0.678,0.685,0.706,0.491,0.461,0.383,0.52,0.859,0.61,0.872,0.76,0.873,0.404,0.362,0.362,0.41,,,
PC-3 [JPC-3],1.15,1.14,1.03,1.05,0.507,0.451,0.478,0.51,0.508,0.405,0.452,0.474,0.438,0.641,0.763,0.727,0.695,1.04,0.439,0.649
NCI-H2170,0.595,0.61,0.581,0.547,0.442,0.392,0.368,0.37,0.272,0.268,0.283,0.239,0.271,0.893,0.911,0.886,0.911,0.628,0.349,0.779
HARA,0.872,0.967,0.876,0.761,0.396,0.466,0.351,0.416,0.718,0.702,0.688,0.706,0.758,0.729,0.908,0.782,1.14,,0.483,
